# Measured values reported in US7393951B2, “Antisense oligonucleotide having anticancerous activity” (Good Will Okinawa Co., Ltd., priority 2004, dated 2008).
# Columns and labels:
# [1] = Toxicity in mice after intravenous administration (body weight, symptoms); assay type: in vivo; details: female mice, 20 μg per g of the body weight
# Protocol: The toxicity of the oligo 3 was examined. Specifically, the oligo 3 was dissolved in a physiological saline so as to have a concentration of 1 mg/mL and administered intravenously into female mice (5-week-old) in a dose of 20 μg per g of the body weight. On the day of administration (Day 0) and 2, 5, 10, 12 and 14 days after the administration, the weight of each mouse was determined.
# FIG. 6 is a graph showing the influence of the oligo 3 on increase of the body weight of the mouse in the case of intravenous administration in a dose of 20 μg/(body weight) g. In the graph, each datum is shown in mean±SE. Here, the data were obtained by using 7 mice for the oligo 3 and 6 mice for the control, respectively.
# HeLa cells [2] = assay: Influence on DNA synthesis of cells, incorporation of [3H]-methylthymidine; assay type: cell-based, human; details: for incorporation ratio of [3H]-methylthymidine into the human cancer cells to the control: HeLa, 0.1% FCS, 24 hours
# Protocol: The influence of each oligo on DNA synthesis of cells was examined by observing the incorporation of [^3H]-methylthymidine into cells. Specifically, the cells were cultured for 24 hours in the same manner as described above, and then the culture solution was exchanged with a culture solution containing each oligo at a concentration of 5, 10 or 20 μM and 0.1% FCS. After 18 hours, 1 μCi/mL [^3H]-methylthymidine was added to the culture solution, and the cells were cultured for another 6 hours. After culture, the specific radioactivity of the cells after predetermined treatment was determined with a liquid scintillation counter.
# HeLa cells [3] = assay: Influence on growth of HeLa human cancer cells, modified MTT method (WST-1 + 1-methoxy PMS); assay type: cell-based
# Protocol: The influence of each oligo on cell growth was examined. Specifically, HeLa cells, which are human cancer cells in a DMEM medium containing 10% heat-inactivated fetal calf serum (FCS), were seeded at a density of 1500 cells/well in a 96-well plate. After culture for 24 hours, the culture solution was exchanged with a culture solution containing each oligo at a concentration of 10 μM and 1% FCS. The cells were cultured at 37° C. in the presence of CO2. Thereafter, the ratio of living cells [survival ratio of cells (%)] was examined over 4 days at 24-hour intervals (absorbance: 450 to 650 nm) by a modified MTT method (WST-1+1-methoxy PMS) using a cell counting kit (manufactured by DOJINDO). Here, a culture solution exchanged with a culture solution not containing any oligo was used as a control (this applies hereinafter).
# Then, an experiment was conducted in a similar manner, setting the concentration of the oligo 3 in the culture solutions at 2.5, 5, 10 and 20 μM respectively, to examine the relationship between the inhibition of growth of human cancer cells and the concentration.
# HeLa cells [4] = assay: Induction of cell death of human cancer cells, microscopy and Giemsa staining; assay type: cell-based; details: 20 μM
# Protocol: Further, the induction of cell death of the human cancer cells by the oligo 3 was examined. Specifically, 3,000 HeLa cells were seeded in a slide chamber. After culture for 24 hours, the culture solution was exchanged with a culture solution containing the oligo 3 at a concentration of 20 μM. […] Furthermore, 24 hours after addition of the oligo 3, the cells were washed with phosphate buffered saline (PBS) and then subjected to Giemsa staining to determine the numbers of living cells and dead cells, and the survival ratio of the cells (%) was determined from the obtained numbers of the cells. Here, the oligo 5 was used additionally as a control.
substance,measurement,setting,value
"oligo 3: phosphorothioate antisense DNA oligonucleotide CCTCA, to positions 47-51 of 7SL RNA of SRP (SEQ ID NO: 1) (DNA, all phosphorothioate, methylation of C not given here)",generation of symptoms versus control,[1],not recognized
same,toxicity,[1],does not exhibit toxicity particularly
same,influence on increase of the body weight versus control,[1]; Day 0 to 14,no difference between the oligo 3 and the control
same,"incorporation of [3H]-methylthymidine into the cells, compared among oligos 1 to 5","HeLa cells [2]; HeLa, 5, 10 or 20 μM",suppressed to the lowest level
same,incorporation ratio of [3H]-methylthymidine into the human cancer cells to the control,HeLa cells [2]; oligo 5 μM,57.5%
same,incorporation ratio of [3H]-methylthymidine into the human cancer cells to the control,HeLa cells [2]; oligo 10 μM,32.0%
same,incorporation ratio of [3H]-methylthymidine into the human cancer cells to the control,HeLa cells [2]; oligo 20 μM,16.6%
same,"inhibitory effect on growth of the human cancer cells, compared among oligos 1 to 5","HeLa cells [3]; HeLa, 10 μM, over 4 days",highest inhibitory effect
same,concentration dependence of inhibition of growth of human cancer cells,"HeLa cells [3]; HeLa, 2.5, 5, 10 and 20 μM",increased in proportion to the concentration
same,survival ratio of the cells to the control,"HeLa cells [3]; HeLa, concentration series 2.5, 5, 10 and 20 μM (concentration of these values not given), Day 1",44.4%
same,survival ratio of the cells to the control,"HeLa cells [3]; HeLa, concentration series 2.5, 5, 10 and 20 μM (concentration of these values not given), Day 2",45.1%
same,survival ratio of the cells to the control,"HeLa cells [3]; HeLa, concentration series 2.5, 5, 10 and 20 μM (concentration of these values not given), Day 3",55.5%
same,survival ratio of the cells to the control,"HeLa cells [3]; HeLa, concentration series 2.5, 5, 10 and 20 μM (concentration of these values not given), Day 4",63.8%
same,survival ratio of the cells to the control,"HeLa cells [3]; HeLa, oligo 10 μM, 1% FCS, Day 1",49.6%
same,survival ratio of the cells to the control,"HeLa cells [3]; HeLa, oligo 10 μM, 1% FCS, Day 2",62.7%
same,survival ratio of the cells to the control,"HeLa cells [3]; HeLa, oligo 10 μM, 1% FCS, Day 3",71.6%
same,survival ratio of the cells to the control,"HeLa cells [3]; HeLa, oligo 10 μM, 1% FCS, Day 4",71.1%
same,"survival ratio of the cells (living vs dead cells, Giemsa staining)",HeLa cells [4]; 24 hours after addition,30.8%
same,microscopic observation of cultured cells,HeLa cells [4]; about 18 hours after addition,a process of from shrinkage of cells to cell death was observed
